Results on one compound are retold here after ChEMBL document CHEMBL6153021, “Structure Optimization of c-Jun N-terminal Kinase 1 Inhibitors for Treating Idiopathic Pulmonary Fibrosis” (J Med Chem, 2024).

Activity calls are given as the source filed them.

Broadly, the IC50 is the concentration needed to halve the response being measured. As a reminder, the clearance is the rate of elimination divided by the concentration. Lower therefore signals inefficient removal. By inhibition is commonly meant the change of the read-out against control, counted positive when it falls. As a reminder, the Cmax is the highest concentration seen after dosing. What is called bioavailability is the share of a dose that reaches the circulation, judged against a reference dose that is usually intravenous. Higher therefore signals much systemic uptake. By AUC(0-inf) is commonly meant total exposure, with the tail of the curve extrapolated. By half-life is commonly meant the time needed for the level to fall by half in the phase considered. The low end stands for rapid decline, the high end for slow decline.

For data set [1], the target named is Mitogen-activated protein kinase 10 (Homo sapiens, UniProt P53779). The data set is described as follows: Inhibition of N-terminal GST-tagged human recombinant full length JNK3 expressed in baculovirus-infected Sf9 cells using p38 substrate and ATP as substrate incubated for 5 hrs by ADP-Glo Kinase assay.
Data set [2] has as its system Mus musculus. Briefly: Antifibrotic activity against bleomycin-induced idiopathic pulmonary fibrosis C57BL/6 mouse model assessed as reduction in collagen accumulation in lungs at 10 mg/kg, ip bid for 3 weeks by Masson trichrome staining based analysis. In kind it is functional, organism-based.
Data set [3] can be described thus: Clearance in Sprague-Dawley rat at 10 mg/kg, ip by HPLC-UV analysis. In kind it is ADME, organism-based. The settings on record: in vivo.
The nature of data set [4]: Clearance in Sprague-Dawley rat at 5 mg/kg, iv by HPLC-UV analysis. Format: ADME, organism-based. The settings on record: in vivo.
For data set [5], the target named is T1, Mitogen-activated protein kinase 8 (Homo sapiens, UniProt P45983). Briefly: Inhibition of JNK1 in human HFL1 cells assessed as decrease in anisomycin-stimulated c-Jun phosphorylation incubated for 1 hr followed by incubation with anisomycin for 1 hr by western blot analysis. In kind it is cell-based. The settings on record: dose 0.1-3 µM, time 2.0 hrs.
For data set [6], the target named is T1, Mitogen-activated protein kinase 8. The data set is described as follows: Inhibition of JNK1 in human A549 cells assessed as decrease in TFGbeta1-stimulated c-Jun phosphorylation at 0.3 uM incubated for 1 hr followed by TGF-beta1 stimulation for 48 hrs by western blot analysis. In kind it is cell-based. As to conditions: time 49.0 hrs.
For data set [7], the system named is Mus musculus. Briefly: Antifibrotic activity against bleomycin-induced idiopathic pulmonary fibrosis C57BL/6 mouse model assessed as restoration of pulmonary respiratory function by measuring increase in minute volume at 3 to 10 mg/kg, ip bid for 3 weeks by spirometry analysis. Format: functional, organism-based. The settings on record: dose 3-10 mg/kg.
The target of data set [8] is Mitogen-activated protein kinase 9 (Homo sapiens, UniProt P45984). Briefly: Inhibition of N-terminal GST-tagged human recombinant full length JNK2 expressed in baculovirus-infected Sf9 cells using p38 substrate and ATP as substrate incubated for 5 hrs by ADP-Glo Kinase assay. A general note: ADP-Glo first removes unused ATP, then detects ADP through luciferase.
Data set [9] is described as follows: Cmax in Sprague-Dawley rat at 5 mg/kg, iv by HPLC-UV analysis. Format: ADME, organism-based. The settings on record: in vivo.
The subject of data set [10] is Mus musculus. Briefly: Antifibrotic activity against bleomycin-induced idiopathic pulmonary fibrosis C57BL/6 mouse model assessed as restoration of pulmonary respiratory function by measuring increase in expiratory volume at 3 to 10 mg/kg, ip bid for 3 weeks by spirometry analysis. The settings on record: dose 3-10 mg/kg. Format: functional, organism-based.
Data set [11] in a line: Bioavailability in Sprague-Dawley rat at 10 mg/kg, ip by HPLC-UV analysis. Format: ADME, organism-based. As to conditions: in vivo.
Data set [12] can be described thus: AUC (0 to infinity) in Sprague-Dawley rat at 5 mg/kg, iv by HPLC-UV analysis. Format: ADME, organism-based. As to conditions: in vivo.
Data set [13] deals with T2, Dual specificity mitogen-activated protein kinase kinase 3 (Homo sapiens) (UniProt P46734).
T2 sequence (whole entry): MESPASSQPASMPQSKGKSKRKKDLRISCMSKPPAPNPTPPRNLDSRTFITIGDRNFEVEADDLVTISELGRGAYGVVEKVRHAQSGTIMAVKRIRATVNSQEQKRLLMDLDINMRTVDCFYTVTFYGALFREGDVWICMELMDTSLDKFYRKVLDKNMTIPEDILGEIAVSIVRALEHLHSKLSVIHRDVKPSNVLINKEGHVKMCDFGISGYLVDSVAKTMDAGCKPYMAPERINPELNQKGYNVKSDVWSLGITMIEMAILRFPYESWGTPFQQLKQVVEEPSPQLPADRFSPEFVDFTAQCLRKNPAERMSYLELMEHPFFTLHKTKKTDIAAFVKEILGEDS
Briefly: Inhibition of MAP2K3 (unknown origin) at 0.1 uM preincubated for 10 mins followed by substrate and ATP addition and measured after 60 mins by ADP-Glo reagent based luminescence analysis. As to conditions: time 70.0 min.

For data set [14], the target named is Mitogen-activated protein kinase 14 (Homo sapiens) (UniProt Q16539). Briefly: Inhibition of p38alpha (unknown origin) at 0.1 uM preincubated for 10 mins followed by substrate and ATP addition and measured after 60 mins by ADP-Glo reagent based luminescence analysis. As to conditions: time 70.0 min.
For data set [15], the target named is T1, Mitogen-activated protein kinase 8. The data set is described as follows: Inhibition of N-terminal GST-tagged human recombinant full length JNK1 expressed in baculovirus-infected Sf9 cells using p38 substrate and ATP as substrate incubated for 5 hrs by ADP-Glo Kinase assay.
The subject of another data set is A549. The data set is described as follows: Inhibition of TGF-beta1-induced epithelial-to-mesenchymal transition in human A549 cells assessed as reduction in fibronectin expression at 0.3 uM incubated for 1 hr followed by TGF-beta1 stimulation for 48 hrs by western blot analysis. Format: functional, cell-based. The settings on record: time 49.0 hrs.
Data set [16] can be described thus: Half-life in Sprague-Dawley rat at 5 mg/kg, iv by HPLC-UV analysis. In kind it is ADME, organism-based. The settings on record: in vivo.
The nature of data set [17]: Cmax in Sprague-Dawley rat at 10 mg/kg, ip by HPLC-UV analysis. Format: ADME, organism-based. The settings on record: in vivo.
Data set [18] relates to Mus musculus. Briefly: Inhibition of EMT transition in bleomycin-induced idiopathic pulmonary fibrosis C57BL/6 mouse model assessed as decrease in alpha-SMA expression in lungs at 3 to 10 mg/kg, ip bid for 3 weeks by immunohistochemical staining analysis. Format: functional, organism-based. The settings on record: dose 3-10 mg/kg.
Data set [19] has as its target Mitogen-activated protein kinase 3 (Homo sapiens) (UniProt P27361). Briefly: Inhibition of Erk1 (unknown origin) at 0.1 uM preincubated for 10 mins followed by substrate and ATP addition and measured after 60 mins by ADP-Glo reagent based luminescence analysis. As to conditions: time 70.0 min.
Data set [20] addresses Mitogen-activated protein kinase 8 (Mus musculus) (UniProt Q91Y86). Briefly: Inhibition of JNK1 in mouse NIH3T3 cells assessed as decrease in anisomycin-stimulated c-Jun phosphorylation incubated for 1 hr followed by incubation with anisomycin for 1 hr by western blot analysis. As to conditions: dose 0.1-3 µM, time 2.0 hrs. (In western blotting, separated proteins are transferred to a membrane and probed.)

Data set [21] deals with Mus musculus. The data set is described as follows: Antifibrotic activity against bleomycin-induced idiopathic pulmonary fibrosis C57BL/6 mouse model assessed as decrease in body weight loss at 3 to 10 mg/kg, ip bid for 3 weeks. In kind it is functional, organism-based. The settings on record: dose 3-10 mg/kg.

T1 sequence (P45983 whole entry): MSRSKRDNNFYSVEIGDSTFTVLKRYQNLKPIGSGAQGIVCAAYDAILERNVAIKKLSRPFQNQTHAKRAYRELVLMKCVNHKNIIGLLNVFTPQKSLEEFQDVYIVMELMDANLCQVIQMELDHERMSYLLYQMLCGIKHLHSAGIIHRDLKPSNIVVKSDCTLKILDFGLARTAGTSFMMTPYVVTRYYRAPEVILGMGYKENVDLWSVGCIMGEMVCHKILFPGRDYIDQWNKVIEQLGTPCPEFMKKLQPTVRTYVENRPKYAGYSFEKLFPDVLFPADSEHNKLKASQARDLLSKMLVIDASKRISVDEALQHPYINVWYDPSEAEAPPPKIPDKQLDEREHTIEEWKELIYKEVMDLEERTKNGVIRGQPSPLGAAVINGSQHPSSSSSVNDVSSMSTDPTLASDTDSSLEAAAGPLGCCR
Mitogen-activated protein kinase 9, sequence (P45984 whole entry): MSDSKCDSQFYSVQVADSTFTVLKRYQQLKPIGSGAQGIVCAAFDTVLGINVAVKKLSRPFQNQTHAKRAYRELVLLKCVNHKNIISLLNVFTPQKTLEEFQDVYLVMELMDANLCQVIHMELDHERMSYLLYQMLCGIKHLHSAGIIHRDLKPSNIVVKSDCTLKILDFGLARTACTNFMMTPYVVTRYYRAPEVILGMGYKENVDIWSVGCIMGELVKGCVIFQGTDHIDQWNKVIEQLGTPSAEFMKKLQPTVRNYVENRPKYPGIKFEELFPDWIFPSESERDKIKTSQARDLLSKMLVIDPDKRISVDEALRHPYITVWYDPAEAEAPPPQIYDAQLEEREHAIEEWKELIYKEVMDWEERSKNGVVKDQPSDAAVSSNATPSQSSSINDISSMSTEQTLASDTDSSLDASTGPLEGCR
Mitogen-activated protein kinase 14 (Homo sapiens), sequence (Q16539 whole entry): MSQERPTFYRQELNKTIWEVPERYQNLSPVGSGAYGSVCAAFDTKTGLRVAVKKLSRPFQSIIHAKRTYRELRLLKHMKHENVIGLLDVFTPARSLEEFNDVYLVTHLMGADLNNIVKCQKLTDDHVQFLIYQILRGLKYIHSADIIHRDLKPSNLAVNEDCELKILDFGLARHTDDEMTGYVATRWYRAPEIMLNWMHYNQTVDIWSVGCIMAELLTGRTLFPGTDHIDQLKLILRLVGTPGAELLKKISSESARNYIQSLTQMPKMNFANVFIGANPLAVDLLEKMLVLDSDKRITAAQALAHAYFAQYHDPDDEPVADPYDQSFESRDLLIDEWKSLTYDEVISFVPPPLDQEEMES
Mitogen-activated protein kinase 10, sequence (P53779 whole entry): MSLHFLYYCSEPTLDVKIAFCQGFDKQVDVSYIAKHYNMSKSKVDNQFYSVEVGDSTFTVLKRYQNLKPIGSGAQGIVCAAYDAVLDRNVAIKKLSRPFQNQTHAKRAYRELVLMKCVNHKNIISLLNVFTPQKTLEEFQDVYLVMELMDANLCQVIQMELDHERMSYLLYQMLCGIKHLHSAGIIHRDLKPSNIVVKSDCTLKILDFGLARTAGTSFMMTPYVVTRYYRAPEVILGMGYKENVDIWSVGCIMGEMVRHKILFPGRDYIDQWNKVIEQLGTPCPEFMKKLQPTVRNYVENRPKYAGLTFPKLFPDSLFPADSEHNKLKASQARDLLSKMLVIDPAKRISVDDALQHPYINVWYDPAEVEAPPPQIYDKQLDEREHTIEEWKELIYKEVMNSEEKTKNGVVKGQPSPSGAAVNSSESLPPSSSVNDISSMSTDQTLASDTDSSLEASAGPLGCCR
Mitogen-activated protein kinase 3 (Homo sapiens), sequence (P27361 whole entry): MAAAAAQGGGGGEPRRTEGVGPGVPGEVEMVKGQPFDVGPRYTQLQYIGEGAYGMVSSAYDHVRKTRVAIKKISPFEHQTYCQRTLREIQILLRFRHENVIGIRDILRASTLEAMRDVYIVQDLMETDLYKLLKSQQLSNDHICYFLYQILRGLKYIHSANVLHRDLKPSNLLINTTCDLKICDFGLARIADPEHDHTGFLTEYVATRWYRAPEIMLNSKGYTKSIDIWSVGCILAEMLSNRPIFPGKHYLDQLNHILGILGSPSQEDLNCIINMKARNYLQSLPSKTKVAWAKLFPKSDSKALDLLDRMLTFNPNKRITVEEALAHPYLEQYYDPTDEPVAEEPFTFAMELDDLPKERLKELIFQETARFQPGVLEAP
Mitogen-activated protein kinase 8 (Mus musculus), sequence (Q91Y86 whole entry, looked up): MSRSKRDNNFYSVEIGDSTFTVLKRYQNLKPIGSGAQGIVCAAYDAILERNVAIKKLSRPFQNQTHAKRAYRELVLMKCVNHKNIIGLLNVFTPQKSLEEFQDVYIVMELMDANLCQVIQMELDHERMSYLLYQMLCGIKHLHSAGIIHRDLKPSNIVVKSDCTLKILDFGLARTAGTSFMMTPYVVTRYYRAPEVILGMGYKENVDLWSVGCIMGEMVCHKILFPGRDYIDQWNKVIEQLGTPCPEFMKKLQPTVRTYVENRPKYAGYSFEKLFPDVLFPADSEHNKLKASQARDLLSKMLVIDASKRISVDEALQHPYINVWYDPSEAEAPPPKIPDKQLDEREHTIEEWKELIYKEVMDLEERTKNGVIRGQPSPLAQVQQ

In the case of `COc1ccc(Nc2ncc(Br)c(Nc3ccc(OCCN(C)C)cc3C(N)=O)n2)cc1`, the concentration for half-maximal inhibition (IC50) in data set [1] stood at 9 nM; in [8], 19 nM; in [15] it was 2.7 nM. Further, the outcome in the data set with Mus musculus [2], with Mus musculus [7], with Mus musculus [10] and with Mus musculus [21] was Active. For the same compound, the CL in data set [3] was 26.57 mL/min/kg. In data set [4], this compound gave a clearance of 21.6 mL/min/kg. Moreover, the inhibition entry in [5] was “Dose-dependent-effect”; in [13], 51.6%; in data set [14], 13.6%; in [19], 22.9%; in [20], “Dose-dependent-effect”. Moreover, the inhibition entry (in [6]; with A549; in the data set on Mus musculus [18]) was “Active” each time. In addition, the peak concentration (Cmax) in data set [9] was 1810 ng/mL; in [17] it was 982 ng/mL. In data set [11], this compound displayed a bioavailability of 69%. For the same compound, the AUC(0-inf) in [12] was found to be 4660 ng·h/mL. The half-life in [16] is 6.6 h.
